Results taken from US8969565B2, “Imidazo[1,2-b]pyridazine-based compounds, compositions comprising them, and methods of their use” (Lexicon Pharmaceuticals, Inc., priority 2012, dated 2015).

What follows are molecules tested against T1, AAK1 (Homo sapiens, UniProt Q2M2I8) (assay: HEK281 cell-based assay (phospho-mu2 Western blot in transfected HEK293F cells)). Conditions: 3 hours incubation, read-out: CBA IC50.
T1 construct: HA; expressed in transfected cells; host or cells: HEK293F
Procedure, shortened: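 HEK293F cells co-transfected with full-length human AAK1/HA and Flag/AP2M1 were treated next day with 5 compound concentrations (3-fold dilutions) in DMEM+0.5% FBS for 3 hours at 37° C. Lysates were Western blotted for phospho-mu2, with total mu2 detected by anti-Flag.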

T1 sequence (Q2M2I8 1-863 isoform Q2M2I8-2): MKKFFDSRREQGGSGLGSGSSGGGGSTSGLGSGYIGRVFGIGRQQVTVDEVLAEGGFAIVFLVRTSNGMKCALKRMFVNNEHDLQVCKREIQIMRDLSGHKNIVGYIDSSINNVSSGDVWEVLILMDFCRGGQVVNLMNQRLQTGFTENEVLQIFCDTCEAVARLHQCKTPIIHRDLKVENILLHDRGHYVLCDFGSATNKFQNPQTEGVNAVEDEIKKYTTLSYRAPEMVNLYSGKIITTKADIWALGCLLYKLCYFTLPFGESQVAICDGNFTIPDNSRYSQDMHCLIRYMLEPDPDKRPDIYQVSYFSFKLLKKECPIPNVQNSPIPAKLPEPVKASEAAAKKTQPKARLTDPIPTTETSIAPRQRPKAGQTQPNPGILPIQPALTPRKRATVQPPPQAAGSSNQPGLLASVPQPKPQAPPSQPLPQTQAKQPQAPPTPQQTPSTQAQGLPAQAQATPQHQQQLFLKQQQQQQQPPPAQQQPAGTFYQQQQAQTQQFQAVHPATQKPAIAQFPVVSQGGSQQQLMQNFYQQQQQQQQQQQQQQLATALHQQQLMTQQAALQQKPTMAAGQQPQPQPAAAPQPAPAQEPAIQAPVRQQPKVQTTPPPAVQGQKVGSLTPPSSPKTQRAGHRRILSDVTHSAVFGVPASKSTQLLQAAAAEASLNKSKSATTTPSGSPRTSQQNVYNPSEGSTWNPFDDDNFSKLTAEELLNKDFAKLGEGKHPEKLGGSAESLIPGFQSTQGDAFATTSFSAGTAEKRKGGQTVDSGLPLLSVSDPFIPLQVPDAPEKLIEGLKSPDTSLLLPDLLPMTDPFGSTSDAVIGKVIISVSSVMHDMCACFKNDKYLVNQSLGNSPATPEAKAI

| IC50 | Compound |
| --- | --- |
| ≤ 100 nM | COc1cnccc1-c1cnc2ccc(NCCN(C(=O)OCC(C)C)C(C)C)nn12 [isobutyl isopropyl(2-((3-(3-methoxypyridin-4-yl)imidazo[1,2-b]pyridazin-6-yl)amino)ethyl)carbamate] |
| ≤ 100 nM | CNC(=O)c1ccc(-c2cnc3ccc(NCCN(C)C(=O)OCC(C)C)nn23)cc1 [isobutyl methyl(2-((3-(4-(methylcarbamoyl)phenyl)imidazo[1,2-b]pyridazin-6-yl)amino)ethyl)carbamate] |
| ≤ 100 nM | CC(C)OC(=O)N1CCN(c2ccc3ncc(-c4cccc5c4OCC5)n3n2)CC1 [isopropyl 4-(3-(2,3-dihydrobenzofuran-7-yl)imidazo[1,2-b]pyridazin-6-yl)piperazine-1-carboxylate] |
| ≤ 10 nM | COc1cnccc1-c1cnc2ccc(N3CCN(C(=O)OC(C)C)CC3)nn12 [isopropyl 4-(3-(3-methoxypyridin-4-yl)imidazo[1,2-b]pyridazin-6-yl)piperazine-1-carboxylate] |
| ≤ 100 nM | CC(C)OC(=O)N1CCN(c2ccc3ncc(-c4cccc5c4OCO5)n3n2)CC1 [isopropyl 4-(3-(benzo[d][1,3]dioxo1-4-yl)imidazo[1,2-b]pyridazin-6-yl)piperazine-1-carboxylate] |
| ≤ 100 nM | CNC(=O)c1cnc2ccc(N3CCN(C(=O)OC(C)C)CC3)nn12 [isopropyl 4-(3-(methylcarbamoyl)imidazo[1,2-b]pyridazin-6-yl)piperazine-1-carboxylate] |
| ≤ 100 nM | CC(C)OC(=O)N1CCN(c2ccc3ncc(-c4ccncc4)n3n2)CC1 [isopropyl 4-(3-(pyridin-4-yl)imidazo[1,2-b]pyridazin-6-yl)piperazine-1-carboxylate] |
| ≤ 100 nM | CC(C)OC(=O)N(C)CCNc1ccc2ncc(-c3cn[nH]c3)n2n1 [isopropyl (2-((3-(1H-pyrazol-4-yl)imidazo[1,2-b]pyridazin-6-yl)amino)ethyl)(methyl)carbamate] |
| ≤ 100 nM | Cc1nc(C)c(-c2cnc3ccc(NCCN(C)C(=O)OC(C)C)nn23)s1 [isopropyl (2-((3-(2,4-dimethylthiazol-5-yl)imidazo[1,2-b]pyridazin-6-yl)amino)ethyl)(methyl)carbamate] |
| ≤ 100 nM | CC(C)OC(=O)N(C)CCNc1ccc2ncc(-c3ccnc(N)c3)n2n1 [isopropyl (2-((3-(2-aminopyridin-4-yl)imidazo[1,2-b]pyridazin-6-yl)amino)ethyl)(methyl)carbamate] |
| ≤ 100 nM | CC(C)OC(=O)N(C)CCNc1ccc2ncc(-c3ccccc3F)n2n1 [isopropyl (2-((3-(2-fluorophenyl)imidazo[1,2-b]pyridazin-6-yl)amino)ethyl)(methyl)carbamate] |
| ≤ 100 nM | COc1ccccc1-c1cnc2ccc(NCCN(C)C(=O)OC(C)C)nn12 [isopropyl (2-((3-(2-methoxyphenyl)imidazo[1,2-b]pyridazin-6-yl)amino)ethyl)(methyl)carbamate] |
| ≤ 100 nM | COc1cnccc1-c1cnc2ccc(NCCN(C)C(=O)OC(C)C)nn12 [isopropyl (2-((3-(3-methoxypyridin-4-yl)imidazo[1,2-b]pyridazin-6-yl)amino)ethyl)(methyl)carbamate] |
| ≤ 100 nM | COc1cnccc1-c1cnc2ccc(NCCNC(=O)OC(C)C)nn12 [isopropyl (2-((3-(3-methoxypyridin-4-yl)imidazo[1,2-b]pyridazin-6-yl)amino)ethyl)carbamate] |
| ≤ 100 nM | COc1cc(F)c(F)cc1-c1cnc2ccc(NCCN(C(=O)OC(C)C)C(C)C)nn12 [isopropyl (2-((3-(4,5-difluoro-2-methoxyphenyl)imidazo[1,2-b]pyridazin-6-yl)amino)ethyl)(isopropyl)carbamate] |
| ≤ 100 nM | CC(C)OC(=O)N(CCNc1ccc2ncc(-c3ccc(C(N)=O)cc3)n2n1)C(C)C [isopropyl (2-((3-(4-carbamoylphenyl)imidazo[1,2-b]pyridazin-6-yl)amino)ethyl)(isopropyl)carbamate] |
| ≤ 10 nM | CC(C)OC(=O)N(C)CCNc1ccc2ncc(-c3ccc(C(N)=O)cc3)n2n1 [isopropyl (2-((3-(4-carbamoylphenyl)imidazo[1,2-b]pyridazin-6-yl)amino)ethyl)(methyl)carbamate] |
| ≤ 100 nM | COc1cc(F)ccc1-c1cnc2ccc(NCCN(C)C(=O)OC(C)C)nn12 [isopropyl (2-((3-(4-fluoro-2-methoxyphenyl)imidazo[1,2-b]pyridazin-6-yl)amino)ethyl)(methyl)carbamate] |
| ≤ 100 nM | COc1ccc(F)cc1-c1cnc2ccc(NCCN(C(=O)OC(C)C)C(C)C)nn12 [isopropyl (2-((3-(5-fluoro-2-methoxyphenyl)imidazo[1,2-b]pyridazin-6-yl)amino)ethyl)(isopropyl)carbamate] |
| ≤ 10 nM | COc1ccc(F)cc1-c1cnc2ccc(NCCN(C)C(=O)OC(C)C)nn12 [isopropyl (2-((3-(5-fluoro-2-methoxyphenyl)imidazo[1,2-b]pyridazin-6-yl)amino)ethyl)(methyl)carbamate] |
| ≤ 100 nM | CC(C)OC(=O)N(C)CCCNc1ccc2ncc(-c3ccc(CN)cc3)n2n1 [isopropyl (3-((3-(4-(aminomethyl)phenyl)imidazo[1,2-b]pyridazin-6-yl)amino)propyl)(methyl)carbamate] |
| ≤ 100 nM | CC(=O)c1ccc(-c2cnc3ccc(NCCCN(C)C(=O)OC(C)C)nn23)s1 [isopropyl (3-((3-(5-acetylthiophen-2-yl)imidazo[1,2-b]pyridazin-6-yl)amino)propyl)(methyl)carbamate] |
| ≤ 100 nM | CCN(CCNc1ccc2ncc(-c3ccncc3OC)n2n1)C(=O)OC(C)C [isopropyl ethyl(2-((3-(3-methoxypyridin-4-yl)imidazo[1,2-b]pyridazin-6-yl)amino)ethyl)carbamate] |
| ≤ 100 nM | CCN(CCNc1ccc2ncc(-c3ccc(C(=O)NC)cc3)n2n1)C(=O)OC(C)C [isopropyl ethyl(2-((3-(4-(methylcarbamoyl)phenyl)imidazo[1,2-b]pyridazin-6-yl)amino)ethyl)carbamate] |
| ≤ 100 nM | COc1ccccc1-c1cnc2ccc(NCCN(C(=O)OC(C)C)C(C)C)nn12 [isopropyl isopropyl(2-((3-(2-methoxyphenyl)imidazo[1,2-b]pyridazin-6-yl)amino)ethyl)carbamate] |
| ≤ 10 nM | COc1cnccc1-c1cnc2ccc(NCCN(C(=O)OC(C)C)C(C)C)nn12 [isopropyl isopropyl(2-((3-(3-methoxypyridin-4-yl)imidazo[1,2-b]pyridazin-6-yl)amino)ethyl)carbamate] |
| ≤ 100 nM | CNC(=O)c1ccc(-c2cnc3ccc(NCCN(C(=O)OC(C)C)C(C)C)nn23)cc1 [isopropyl isopropyl(2-((3-(4-(methylcarbamoyl)phenyl)imidazo[1,2-b]pyridazin-6-yl)amino)ethyl)carbamate] |
| ≤ 100 nM | CC(C)OC(=O)N(CCNc1ccc2ncc(-c3ccncc3)n2n1)C(C)C [isopropyl isopropyl(2-((3-(pyridin-4-yl)imidazo[1,2-b]pyridazin-6-yl)amino)ethyl)carbamate] |
| ≤ 100 nM | CC(C)OC(=O)N(CCNc1ccc2ncc(-c3ccccc3)n2n1)C(C)C [isopropyl isopropyl(2-((3-phenylimidazo[1,2-b]pyridazin-6-yl)amino)ethyl)carbamate] |
| ≤ 100 nM | CNC(=O)c1ccc(-c2cnc3ccc(NCCN(C)C(=O)OC(C)C)nn23)cc1 [isopropyl methyl(2-((3-(4-(methylcarbamoyl)phenyl)imidazo[1,2-b]pyridazin-6-yl)amino)ethyl)carbamate] |
